Source: patent US9108983B2, “Pyrrole compounds, a process for their preparation and pharmaceutical compositions containing them” (LES LABORATOIRES SERVIER, priority 2013, dated 2015)
Structures can show the parent of a compound that is named as a salt. Where two headings read alike, the source gives them in different places.

Assays:
[1] = target: Bcl-2 protein (histag-Bcl-2, UniProtKB P10415) (Homo sapiens (Human), UniProt P10415); test: Inhibition of Bcl-2 by the fluorescence polarisation technique; assay type: binding; conditions: incubation for 2 hours
Bcl-2 protein, sequence (P10415 whole entry): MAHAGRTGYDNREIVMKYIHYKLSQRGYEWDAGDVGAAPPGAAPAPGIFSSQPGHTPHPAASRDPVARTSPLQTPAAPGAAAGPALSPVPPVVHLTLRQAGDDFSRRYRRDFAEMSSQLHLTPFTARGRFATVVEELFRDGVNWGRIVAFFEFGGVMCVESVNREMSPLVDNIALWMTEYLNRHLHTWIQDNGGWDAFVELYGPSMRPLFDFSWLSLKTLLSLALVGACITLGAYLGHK
Method in brief: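 In pH 7.4 buffer (Hepes 10 mM, NaCl 150 mM, Tween20 0.05%), test compounds at increasing concentrations competed with a fluorescein peptide (1.00×10^−8 M final) for histag-Bcl-2 (2.50×10^−8 M final). Readout was fluorescence polarisation after a 2 h incubation.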

[2] = test system: RS4;11 leukaemia tumour line; test: In vitro cytotoxicity (Microculture Tetrazolium Assay); assay type: cell-based; conditions: RS4;11 cells, exposed for 48 hours, cell viability, read-out: IC50 (nM) MTT RS4;11
Method: The cytotoxicity studies were carried out on the RS4;11 leukaemia tumour line.
The cells are distributed onto microplates and exposed to the test compounds for 48 hours.
The cell viability is then quantified by a colorimetric assay, the Microculture Tetrazolium Assay (Cancer Res., 1987, 47, 939-942).

IC50 ([1]; read-out: IC50 (nM) Bcl-2 FP) [nM] | Structure (SMILES) | IC50 ([2]; Homo sapiens, RS4-11, 48 h) [nM] | IC50 ([2]; Homo sapiens) [nM] | IC50 ([1]; IC50 (nM) Bcl-2 FP) [nM] | IC50 [2] [nM]
8.2 | Cc1c(C(=O)N(c2ccc(O)cc2)c2cccc(F)c2)cc(-c2cc(Cl)ccc2C(=O)N2Cc3ccccc3C[C@H]2CN2CCOCC2)n1C [Example 34, 5-(5-Chloro-2-{[(3S)-3-(morpholin-4-ylmethyl)-3,4-dihydroisoquinolin-2(1H)-yl]carbonyl}phenyl)-N-(3-fluorophenyl)-N-(4-hydroxyphenyl)-1,2-dimethyl-1H-pyrrole-3-carboxamide hydrochloride] | 47 | – | – | –
50 | Cc1c(C(=O)N(C)c2ccc(O)cc2)cc(-c2ccc(CNC(=O)COc3ccccc3)cc2C(=O)N2Cc3ccccc3C[C@H]2C)n1C [Example 35, N-(4-Hydroxyphenyl)-N,1,2-trimethyl-5-(2-{[(3R)-3-methyl-3,4-dihydroisoquinolin-2(1H)-yl]carbonyl}-4-{[(phenoxyacetyl)amino]methyl}phenyl)-1H-pyrrole-3-carboxamide] | 560 | – | – | –
71.4 | CCNC(=O)NCc1ccc(-c2cc(C(=O)N(C)c3ccc(O)cc3)c(C)n2C)c(C(=O)N2Cc3ccccc3C[C@H]2C)c1 [Example 36, 5-(4-{[(Ethylcarbamoyl)amino]methyl}-2-{[(3R)-3-methyl-3,4-dihydroisoquinolin-2(1H)-yl]carbonyl}phenyl)-N-(4-hydroxyphenyl)-N,1,2-trimethyl-1H-pyrrole-3-carboxamide] | > 600 | – | – | –
60.4 | Cc1c(C(=O)N(C)c2ccc(O)cc2)cc(-c2ccc(CNC(=O)NCc3ccccc3)cc2C(=O)N2Cc3ccccc3C[C@H]2C)n1C [Example 37, 5-(4-{[(Benzylcarbamoyl)amino]methyl}-2-{[(3R)-3-methyl-3,4-dihydroisoquinolin-2(1H)-yl]carbonyl}phenyl)-N-(4-hydroxyphenyl)-N,1,2-trimethyl-1H-pyrrole-3-carboxamide] | > 600 | – | – | –
7.5 | Cc1c(C(=O)N(c2ccccc2)c2ccc(O)cc2)cc(-c2cc(Cl)ccc2C(=O)N2Cc3ccccc3C[C@H]2CO)n1C [Example 38, 5-(5-Chloro-2-{[(3S)-3-(hydroxymethyl)-3,4-dihydroisoquinolin-2(1H)-yl]carbonyl}phenyl)-N-(4-hydroxyphenyl)-1,2-dimethyl-N-phenyl-1H-pyrrole-3-carboxamide] | 134 | – | – | –
7.2 | Cc1c(C(=O)N(c2ccc(O)cc2)c2cnn(C)c2)cc(-c2cc3c(cc2C(=O)N2Cc4ccccc4C[C@H]2C)OCO3)n1C [Example 39, N-(4-Hydroxyphenyl)-1,2-dimethyl-5-(6-{[(3R)-3-methyl-3,4-dihydroisoquinolin-2(1H)-yl]carbonyl}-1,3-benzodioxol-5-yl)-N-(1-methyl-1H-pyrazol-4-yl)-1H-pyrrole-3-carboxamide] | 19.7 | – | – | –
10 | Cc1c(C(=O)N(c2ccc(O)cc2)c2cccc(F)c2)cc(-c2cc3c(cc2C(=O)N2Cc4ccccc4C[C@H]2C)OCO3)n1C [Example 41, N-(3-Fluorophenyl)-N-(4-hydroxyphenyl)-1,2-dimethyl-5-(6-{[(3R)-3-methyl-3,4-dihydroisoquinolin-2(1H)-yl]carbonyl}-1,3-benzodioxol-5-yl)-1H-pyrrole-3-carboxamide] | 22.6 | – | – | –
5.2 | Cc1c(C(=O)N(c2ccc(O)cc2)c2cnc3c(ccn3C)c2)cc(-c2cc3c(cc2C(=O)N2Cc4ccccc4C[C@H]2C)OCO3)n1C [Example 42, N-(4-Hydroxyphenyl)-1,2-dimethyl-5-(6-{[(3R)-3-methyl-3,4-dihydroisoquinolin-2(1H)-yl]carbonyl}-1,3-benzodioxol-5-yl)-N-(1-methyl-1H-pyrrolo[2,3-b]pyridin-5-yl)-1H-pyrrole-3-carboxamide] | 4.36 | – | – | –
5.1 | Cc1c(C(=O)N(c2ccccc2)c2ccc(O)cc2)cc(-c2cc3c(cc2C(=O)N2Cc4ccccc4C[C@H]2C)OCO3)n1C [Example 43, N-(4-Hydroxyphenyl)-1,2-dimethyl-5-(6-{[(3R)-3-methyl-3,4-dihydroisoquinolin-2(1H)-yl]carbonyl}-1,3-benzodioxol-5-yl)-N-phenyl-1H-pyrrole-3-carboxamide] | 28.9 | – | – | –
3 | Cc1c(C(=O)N(c2ccc(O)cc2)c2cnc3c(ccn3C)c2)cc(-c2cc3c(cc2C(=O)N2Cc4ccccc4C[C@H]2CN2CCOCC2)OCO3)n1C [Example 44, N-(4-Hydroxyphenyl)-1,2-dimethyl-N-(1-methyl-1H-pyrrolo[2,3-b]-pyridin-5-yl)-5-(6-{[(3S)-3-(morpholin-4-ylmethyl)-3,4-dihydroisoquinolin-2(1H)-yl]carbonyl}-1,3-benzodioxol-5-yl)-1H-pyrrole-3-carboxamide hydrochloride] | 5.41 | – | – | –
– | Cc1c(C(=O)N(C)c2ccc(O)cc2)cc(-c2cc(CCNC(=O)Oc3ccccc3)ccc2C(=O)N2Cc3ccccc3C[C@H]2C)n1C [Example 45, Phenyl[2-(3-{4-[(4-hydroxyphenyl)(methyl)carbamoyl]-1,5-dimethyl-1H-pyrrol-2-yl}-4-{[(3R)-3-methyl-3,4-dihydroisoquinolin-2(1H)-yl]carbonyl}-phenyl)ethyl]carbamate] | – | 403 | 38.9 | –
76.6 | Cc1c(C(=O)N(C)c2ccc(O)cc2)cc(-c2cc(CCNC(=O)COc3ccccc3)ccc2C(=O)N2Cc3ccccc3C[C@H]2C)n1C [Example 46, N-(4-Hydroxyphenyl)-N,1,2-trimethyl-5-(2-{[(3R)-3-methyl-3,4-dihydroisoquinolin-2(1H)-yl]carbonyl}-5-{2-[(phenoxyacetyl)amino]ethyl}phenyl)-1H-pyrrole-3-carboxamide] | > 600 | – | – | –
4.4 | COc1ncc(N(C(=O)c2cc(-c3cc4c(cc3C(=O)N3Cc5ccccc5C[C@H]3C)OCO4)n(C)c2C)c2ccc(O)cc2)cn1 [Example 48, N-(4-Hydroxyphenyl)-N-(2-methoxypyrimidin-5-yl)-1,2-dimethyl-5-(6-{[(3R)-3-methyl-3,4-dihydroisoquinolin-2(1H)-yl]carbonyl}-1,3-benzodioxol-5-yl)-1H-pyrrole-3-carboxamide] | 14.9 | – | – | –
5.9 | COc1ncc(N(C(=O)c2cc(-c3cc4c(cc3C(=O)N3Cc5ccccc5C[C@H]3CN3CCOCC3)OCO4)n(C)c2C)c2ccc(O)cc2)cn1 [Example 50, N-(4-Hydroxyphenyl)-N-(2-methoxypyrimidin-5-yl)-1,2-dimethyl-5-(6-{[(3S)-3-(morpholin-4-ylmethyl)-3,4-dihydroisoquinolin-2(1H)-yl]carbonyl}-1,3-benzodioxol-5-yl)-1H-pyrrole-3-carboxamide hydrochloride] | 33.1 | – | – | –
26.7 | Cc1c(C(=O)N(C)c2ccc(O)cc2)cc(-c2cc(CNC(=O)NCc3ccccc3)ccc2C(=O)N2Cc3ccccc3C[C@H]2C)n1C [Example 51, 5-(5-{[(Benzylcarbamoyl)amino]methyl}-2-{[(3R)-3-methyl-3,4-dihydroisoquinolin-2(1H)-yl]carbonyl}phenyl)-N-(4-hydroxyphenyl)-N,1,2-trimethyl-1H-pyrrole-3-carboxamide] | 354 | – | – | –
28.9 | CCNC(=O)NCc1ccc(C(=O)N2Cc3ccccc3C[C@H]2C)c(-c2cc(C(=O)N(C)c3ccc(O)cc3)c(C)n2C)c1 [Example 52, 5-(5-{[(Ethylcarbamoyl)amino]methyl}-2-{[(3R)-3-methyl-3,4-dihydroisoquinolin-2(1H)-yl]carbonyl}phenyl)-N-(4-hydroxyphenyl)-N,1,2-trimethyl-1H-pyrrole-3-carboxamide] | 433 | – | – | –
43.5 | Cc1c(C(=O)N(C)c2ccc(O)cc2)cc(-c2cc(CNC(=O)COc3ccccc3)ccc2C(=O)N2Cc3ccccc3C[C@H]2C)n1C [Example 53, N-(4-Hydroxyphenyl)-N,1,2-trimethyl-5-(2-{[(3R)-3-methyl-3,4-dihydroisoquinolin-2(1H)-yl]carbonyl}-5-{[(phenoxyacetyl)amino]methyl}phenyl)-1H-pyrrole-3-carboxamide] | 293 | – | – | –
18 | Cc1c(C(=O)N(c2ccc(O)cc2)c2cnc3c(ccn3C)c2)cc(-c2cc(CNC(=O)COc3ccccc3)ccc2C(=O)N2Cc3ccccc3C[C@H]2C)n1C [Example 54, N-(4-Hydroxyphenyl)-1,2-dimethyl-5-(2-{[(3R)-3-methyl-3,4-dihydroisoquinolin-2(1H)-yl]carbonyl}-5-{[(phenoxyacetyl)amino]methyl}phenyl)-N-(1-methyl-1H-pyrrolo[2,3-b]pyridin-5-yl)-1H-pyrrole-3-carboxamide] | 30.5 | – | – | –

Structure (SMILES) | IC50 ([1]; read-out: IC50 (nM) Bcl-2 FP) [nM] | IC50 ([2]; Homo sapiens, RS4-11, 48 h) [nM] | IC50 ([2]; Homo sapiens) [nM] | IC50 ([1]; IC50 (nM) Bcl-2 FP) [nM] | IC50 [2] [nM]
Cc1c(C(=O)N(C)c2ccc(O)cc2)cc(-c2cc(CNC(=O)Oc3ccccc3)ccc2C(=O)N2Cc3ccccc3C[C@H]2C)n1C [Example 40, Phenyl (3-{4-[(4-hydroxyphenyl)(methyl)carbamoyl]-1,5-dimethyl-1H-pyrrol-2-yl}-4-{[(3R)-3-methyl-3,4-dihydroisoquinolin-2(1H)-yl]carbonyl}benzyl)-carbamate] | 64.4 | – | 431 | – | –
Cc1c(C(=O)N(c2ccc(O)cc2)c2cnc3c(c2)CCN3C)cc(-c2cc3c(cc2C(=O)N2Cc4ccccc4C[C@H]2CN2CCOCC2)OCO3)n1C [Example 49, N-(4-Hydroxyphenyl)-1,2-dimethyl-N-(1-methyl-2,3-dihydro-1H-pyrrolo[2,3-b]pyridin-5-yl)-5-(6-{[(3S)-3-(morpholin-4-ylmethyl)-3,4-dihydroisoquinolin-2(1H)-yl]carbonyl}-1,3-benzodioxol-5-yl)-1H-pyrrole-3-carboxamide dihyrochloride] | 4 | – | – | – | 14.1
